Reference: PubChem BioAssay AID256 (DTP/NCI, 2004)
“And” between values parts separate entries of the source, which are not always exact repeats. Equal values may be shown once. Toxic doses and inconclusive results are not listed.

System: CD2F1 mice, L1210 leukemia ip, survival T/C
Experiment: NCI In Vivo Anticancer Drug Screen. Data for tumor model L1210 Leukemia (intraperitoneal) in CD2F1 (CDF1) mice
Conditions: higher = longer survival
In short: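 Implant tumor; dose compound or vehicle; measure endpoint in both groups; report treated divided by control.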

[1] = endpoint: mean survival time, dose: 100.0 mg/kg/injection, schedule: Q04DX002 (ip), vehicle: saline with Tween-80
[2] = endpoint: mean survival time, dose: 200.0 mg/kg/injection, schedule: Q04DX002 (ip), vehicle: saline with Tween-80
[3] = endpoint: mean survival time, dose: 100.0 mg/kg/injection, schedule: Q01DX001 (ip), vehicle: saline with Tween-80
[4] = endpoint: mean survival time, dose: 100.0 mg/kg/injection, schedule: Q01DX009 (ip), vehicle: saline with Tween-80
[5] = endpoint: mean survival time, dose: 200.0 mg/kg/injection, schedule: Q01DX001 (ip), vehicle: saline with Tween-80
[6] = endpoint: mean survival time, dose: 400.0 mg/kg/injection, schedule: Q01DX001 (ip), vehicle: saline with Tween-80
[7] = endpoint: mean survival time, dose: 100.0 mg/kg/injection, schedule: Q04DX003 (ip), vehicle: saline with Tween-80
[8] = endpoint: mean survival time, dose: 200.0 mg/kg/injection, schedule: Q04DX003 (ip), vehicle: saline with Tween-80
[9] = endpoint: mean survival time, dose: 400.0 mg/kg/injection, schedule: Q04DX003 (ip), vehicle: saline with Tween-80

In the case of `C[C@H](N)C(=O)N[C@@H]1[C@H]2C(=C(O)C[C@@H](O)[C@@H]2O)C(=O)O[C@]1(C)C(Cl)Cl`, the T/C (endpoint: median survival time, dose: 0.07 mg/kg/injection, schedule: Q03HX024 (ip), vehicle: saline) is reported as 106 % of control, the T/C (endpoint: median survival time, dose: 0.09 mg/kg/injection, schedule: Q01DX009 (ip), vehicle: saline) is reported as 106 % of control and 109 % of control and the T/C (endpoint: median survival time, dose: 0.14 mg/kg/injection, schedule: Q03HX024 (ip), vehicle: saline) is reported as 120 % of control. The T/C (endpoint: median survival time, dose: 0.18 mg/kg/injection, schedule: Q01DX009 (ip), vehicle: saline) was 114 % of control and 118 % of control, the T/C (endpoint: median survival time, dose: 0.19 mg/kg/injection, schedule: Q01DX009 (ip), vehicle: Klucel (hydroxypropylcellulose) (HPC)) was 105 % of control and 110 % of control and 112 % of control and the T/C (endpoint: median survival time, dose: 0.21 mg/kg/injection, schedule: Q03HX008 (ip), vehicle: saline) was 103 % of control. The T/C (endpoint: median survival time, dose: 0.28 mg/kg/injection, schedule: Q03HX024 (ip), vehicle: saline) was 124 % of control, the T/C (endpoint: median survival time, dose: 0.34 mg/kg/injection, schedule: Q01DX005 (ip), vehicle: saline) was 116 % of control and the T/C (endpoint: median survival time, dose: 0.34 mg/kg/injection, schedule: Q01DX005 (iv), vehicle: saline) was 98 % of control. The T/C (endpoint: median survival time, dose: 0.37 mg/kg/injection, schedule: Q01DX009 (ip), vehicle: Klucel (hydroxypropylcellulose) (HPC)) was 120 % of control, the T/C (endpoint: median survival time, dose: 0.37 mg/kg/injection, schedule: Q01DX009 (ip), vehicle: saline) was 124 % of control and the T/C (endpoint: median survival time, dose: 0.37 mg/kg/injection, schedule: Q01DX009 (ip), vehicle: water) was 118 % of control. The T/C (endpoint: median survival time, dose: 0.38 mg/kg/injection, schedule: Q01DX009 (ip), vehicle: Klucel (hydroxypropylcellulose) (HPC)) was 117 % of control and 123 % of control and 111 % of control, the T/C (endpoint: median survival time, dose: 0.42 mg/kg/injection, schedule: Q03HX008 (ip), vehicle: saline) was 116 % of control and the T/C (endpoint: median survival time, dose: 0.56 mg/kg/injection, schedule: Q04DX003 (ip), vehicle: saline) was 113 % of control. The T/C (endpoint: median survival time, dose: 0.68 mg/kg/injection, schedule: Q01DX005 (iv), vehicle: saline) was 109 % of control, the T/C (endpoint: median survival time, dose: 0.75 mg/kg/injection, schedule: Q01DX009 (ip), vehicle: saline) was 150 % of control and 152 % of control and 155 % of control and the T/C (endpoint: median survival time, dose: 1.13 mg/kg/injection, schedule: Q04DX003 (ip), vehicle: saline) was 116 % of control. The T/C (endpoint: median survival time, dose: 1.5 mg/kg/injection, schedule: Q01DX009 (ip), vehicle: saline) was 155 % of control and 176 % of control and 190 % of control, the T/C (endpoint: median survival time, dose: 1.5 mg/kg/injection, schedule: Q01DX009 (ip), vehicle: water) was 153 % of control and the T/C (endpoint: median survival time, dose: 1.69 mg/kg/injection, schedule: Q01DX001 (ip), vehicle: saline) was 112 % of control. For the same molecule, the T/C (endpoint: median survival time, dose: 1.69 mg/kg/injection, schedule: Q01DX001 (iv), vehicle: saline) was 101 % of control, the T/C (endpoint: median survival time, dose: 2.25 mg/kg/injection, schedule: Q04DX003 (ip), vehicle: saline) was 124 % of control and the T/C (endpoint: median survival time, dose: 2.7 mg/kg/injection, schedule: Q01DX005 (ip), vehicle: saline) was 167 % of control. For the same molecule, the T/C (endpoint: median survival time, dose: 3.0 mg/kg/injection, schedule: Q01DX009 (oral), vehicle: saline) was 100 % of control, the T/C (endpoint: median survival time, dose: 3.38 mg/kg/injection, schedule: Q01DX001 (ip), vehicle: saline) was 116 % of control and the T/C (endpoint: median survival time, dose: 3.38 mg/kg/injection, schedule: Q01DX001 (iv), vehicle: saline) was 113 % of control. The T/C (endpoint: median survival time, dose: 6.0 mg/kg/injection, schedule: Q01DX009 (ip), vehicle: water) was 91 % of control, the T/C (endpoint: median survival time, dose: 6.0 mg/kg/injection, schedule: Q01DX009 (oral), vehicle: saline) was 97 % of control and the T/C (endpoint: median survival time, dose: 12.0 mg/kg/injection, schedule: Q01DX009 (oral), vehicle: saline) was 100 % of control. The T/C (endpoint: median survival time, dose: 24.0 mg/kg/injection, schedule: Q01DX009 (oral), vehicle: saline) was 112 % of control.

In the case of `CC1Cc2c([nH]c3ccc(Cl)cc23)CN1` (stereo not given), the T/C [1] is reported as 86 % of control and the T/C [2] is reported as 89 % of control.

For `CC(=O)c1ccc(N=NNc2ccc(C(C)=O)cc2)cc1`, the T/C [3] was 103 % of control, the T/C [4] was 96 % of control and the T/C [5] was 95 % of control. For the same molecule, the T/C (endpoint: mean survival time, dose: 200.0 mg/kg/injection, schedule: Q01DX009 (ip), vehicle: saline with Tween-80) was 95 % of control and the T/C [6] was 95 % of control.

For `CCC(C)[N+](=O)[O-]` (stereo not given), the T/C (endpoint: mean survival time, dose: 50.0 mg/kg/injection, schedule: Q01DX001 (ip), vehicle: saline) was 94 % of control, the T/C (endpoint: mean survival time, dose: 100.0 mg/kg/injection, schedule: Q01DX001 (ip), vehicle: saline) was 98 % of control and the T/C (endpoint: mean survival time, dose: 200.0 mg/kg/injection, schedule: Q01DX001 (ip), vehicle: saline) was 102 % of control.

In the case of `COc1cc([C@@H]2c3cc4c(c(O)c3C[C@H]3COC(=O)[C@@H]32)OCO4)cc(OC)c1OC`, the T/C (endpoint: mean survival time, dose: 10.0 mg/kg/injection, schedule: Q04DX003 (ip), vehicle: saline) is reported as 100 % of control, the T/C (endpoint: mean survival time, dose: 20.0 mg/kg/injection, schedule: Q04DX003 (ip), vehicle: saline) is reported as 108 % of control and the T/C (endpoint: mean survival time, dose: 40.0 mg/kg/injection, schedule: Q04DX003 (ip), vehicle: saline) is reported as 105 % of control. The T/C (endpoint: mean survival time, dose: 80.0 mg/kg/injection, schedule: Q04DX003 (ip), vehicle: saline) was 121 % of control, the T/C (endpoint: mean survival time, dose: 125.0 micrograms/kg/injection, schedule: Q01DX009 (ip), vehicle: saline) was 100 % of control and the T/C (endpoint: mean survival time, dose: 250.0 micrograms/kg/injection, schedule: Q01DX009 (ip), vehicle: saline) was 108 % of control. For the same molecule, the T/C (endpoint: mean survival time, dose: 500.0 micrograms/kg/injection, schedule: Q01DX009 (ip), vehicle: saline) was 110 % of control, the T/C (endpoint: mean survival time, dose: 2000.0 micrograms/kg/injection, schedule: Q01DX009 (ip), vehicle: saline) was 124 % of control and the T/C (endpoint: mean survival time, dose: 4000.0 micrograms/kg/injection, schedule: Q01DX009 (ip), vehicle: saline) was 114 % of control.

With `Cc1cn(C2CC3[O][Sn]([CH3])([CH3])[O]CC3O2)c(=O)[nH]c1=O` (stereo not given) the T/C (endpoint: mean survival time, dose: 12.5 mg/kg/injection, schedule: Q01DX005 (ip), vehicle: other) was 105 % of control, the T/C (endpoint: mean survival time, dose: 25.0 mg/kg/injection, schedule: Q01DX005 (ip), vehicle: other) was 108 % of control and the T/C (endpoint: mean survival time, dose: 50.0 mg/kg/injection, schedule: Q01DX005 (ip), vehicle: other) was 103 % of control.

In the case of `Nc1ccc2cc(O)ccc2c1`, the T/C (endpoint: mean survival time, dose: 12.5 mg/kg/injection, schedule: Q01DX009 (ip), vehicle: saline with Tween-80) is reported as 91 % of control, the T/C (endpoint: mean survival time, dose: 25.0 mg/kg/injection, schedule: Q01DX009 (ip), vehicle: saline with Tween-80) is reported as 98 % of control and the T/C (endpoint: mean survival time, dose: 50.0 mg/kg/injection, schedule: Q01DX009 (ip), vehicle: saline with Tween-80) is reported as 95 % of control.

With `Cc1ccc(S(=O)(=O)OC2C(O)OCC3OC(C)(C)OC32)cc1` (stereo not given) the T/C [7] was 98 % of control, the T/C [8] was 102 % of control and the T/C [9] was 93 % of control.

With `O=C(O)C1=CCCC(O)CC1` (stereo not given) the T/C [3] was 95 % of control, the T/C [1] was 100 % of control and the T/C [5] was 94 % of control. The T/C [2] was 96 % of control, the T/C [6] was 95 % of control and the T/C (endpoint: mean survival time, dose: 400.0 mg/kg/injection, schedule: Q04DX002 (ip), vehicle: saline with Tween-80) was 103 % of control.

With `CCOC(=O)Nc1cc(=O)c([N+](=O)[O-])c(NC(=O)OCC)[nH]1` the T/C (endpoint: mean survival time, dose: 75.0 mg/kg/injection, schedule: Q04DX003 (ip), vehicle: saline) was 92 % of control, the T/C (endpoint: mean survival time, dose: 150.0 mg/kg/injection, schedule: Q04DX003 (ip), vehicle: saline) was 97 % of control and the T/C (endpoint: mean survival time, dose: 300.0 mg/kg/injection, schedule: Q04DX003 (ip), vehicle: saline) was 101 % of control.

`COc1cc2ccc3c[n+](C)ccc3c2cc1OC` was tested, and the T/C (endpoint: mean survival time, dose: 25.0 mg/kg/injection, schedule: Q01DX009 (ip), vehicle: water) was 102 % of control and 100 % of control, the T/C (endpoint: mean survival time, dose: 50.0 mg/kg/injection, schedule: Q01DX009 (ip), vehicle: water) was 107 % of control and 104 % of control and the T/C (endpoint: mean survival time, dose: 100.0 mg/kg/injection, schedule: Q01DX009 (ip), vehicle: water) was 94 % of control and 114 % of control.

For `[N-]=[N+]=CC(=O)NCC(=O)N/N=C/c1ccccn1`, the T/C (endpoint: mean survival time, dose: 100.0 mg/kg/injection, schedule: Q01DX009 (ip), vehicle: saline sonified) was 104 % of control, the T/C [7] was 97 % of control and the T/C (endpoint: mean survival time, dose: 200.0 mg/kg/injection, schedule: Q01DX009 (ip), vehicle: saline sonified) was 104 % of control. The T/C [8] was 98 % of control, the T/C (endpoint: mean survival time, dose: 400.0 mg/kg/injection, schedule: Q01DX009 (ip), vehicle: saline sonified) was 97 % of control and the T/C [9] was 94 % of control.

With `NC(CS(=O)c1ccc([N+](=O)[O-])cc1Cl)C(=O)O` (stereo not given) the T/C [4] was 96 % of control.

For `CCCCCCCCCCCCCCCCCC[n+]1ccc(C(=O)c2ccccc2)cc1`, the T/C (endpoint: mean survival time, dose: 9.38 mg/kg/injection, schedule: Q01DX001 (ip), vehicle: other) was 109 % of control and the T/C (endpoint: mean survival time, dose: 18.75 mg/kg/injection, schedule: Q01DX001 (ip), vehicle: other) was 110 % of control.
